In series [1] the test system is Lactiplantibacillus plantarum 1,5-anhydroglucitol-6-phosphate isomerase LpYbiW (Uniprot A0A807DR53), SEQ ID NO: 2. Put plainly: Michaelis-Menten kinetics of LpYbiW, coupled with LpFsaA and EcGldA, NADH consumption at A340nm. The format is biochemical. As to conditions: 100 nM activated LpYbiW, 20 mM Tris/HCl pH 7.5, 100 mM KCl, 5 µM LpFsaA, 5 µM EcGldA, 0.4 mM NADH, anaerobic glove box; substrate 1,5-anhydroglucitol-6-phosphate at varying concentrations. The method, then:
Continuous-wave X-band EPR spectroscopy was used to characterize the LpYbiW glycyl radical. A reaction system (200 µL) containing 20 mM Tris/HCl, (pH 7.5), 100 mM KCl, 100 µM titanium(III) citrate, 1 mM SAM, 80 µM reconstituted LpYbiY, and 40 µM LpYbiW was incubated for 15 minutes at room temperature in a glove box. 10% glycerol was added, and a resulting mixture was loaded into an EPR tube (Wilmad Lab Glass, 734-LPV-7) with an outer diameter of 4 mm and a length of 8 inches. The tube was sealed with a rubber stopper, removed from the glove box, and frozen using liquid nitrogen before EPR analysis. The experimental spectrum of the glycyl radical was modeled using Bruker Xepr spin fitting to obtain g-values, hyperfine coupling constants, and line widths. Double integration of the simulated spectrum was used to measure the spin concentration. […]
The Michaelis-Menten kinetic parameters of LpYbiW were determined by coupling with LpFsaA and EcGldA. The reaction rate of LpYbiW was monitored by measuring NADH consumption at A340nm. The absorbance change of the reaction system at 340 nm was measured every 5 seconds using the cuvette mode of an ultra-micro UV-visible spectrophotometer (Nanophotometer) in a glove box (1 cm light path). […]

The target in series [2] is T1, Escherichia coli strain K12 1,5-anhydromannitol-6-phosphate isomerase EcPflD (Uniprot P32674), SEQ ID NO: 98 (Escherichia coli, UniProt P32674).
T1 sequence (P32674 1-765): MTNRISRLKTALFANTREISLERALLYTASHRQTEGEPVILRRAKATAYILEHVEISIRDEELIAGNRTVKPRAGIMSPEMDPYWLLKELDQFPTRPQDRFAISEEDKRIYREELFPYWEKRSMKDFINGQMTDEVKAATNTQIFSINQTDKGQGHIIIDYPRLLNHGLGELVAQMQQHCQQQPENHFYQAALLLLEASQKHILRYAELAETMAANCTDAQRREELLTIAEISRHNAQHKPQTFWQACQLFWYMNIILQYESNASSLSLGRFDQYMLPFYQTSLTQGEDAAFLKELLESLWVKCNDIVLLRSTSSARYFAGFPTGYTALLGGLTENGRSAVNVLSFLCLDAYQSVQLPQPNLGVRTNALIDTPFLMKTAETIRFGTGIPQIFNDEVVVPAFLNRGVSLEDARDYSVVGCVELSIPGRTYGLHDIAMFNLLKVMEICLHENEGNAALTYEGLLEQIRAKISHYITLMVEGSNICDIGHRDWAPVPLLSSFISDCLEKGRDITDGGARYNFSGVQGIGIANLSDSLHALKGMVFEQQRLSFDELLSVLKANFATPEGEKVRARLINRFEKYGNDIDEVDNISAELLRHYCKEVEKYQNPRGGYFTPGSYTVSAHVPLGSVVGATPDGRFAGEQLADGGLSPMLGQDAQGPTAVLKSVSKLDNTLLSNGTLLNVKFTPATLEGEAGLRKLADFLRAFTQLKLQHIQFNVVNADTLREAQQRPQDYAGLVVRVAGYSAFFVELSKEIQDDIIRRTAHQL
Description: Michaelis-Menten kinetics of EcPflD, coupled with EcFsaB and EcGldA, decrease in A340nm. Type of series: biochemical. As to conditions: 40 nM activated EcPflD, 20 mM Tris/HCl pH 7.5, 100 mM KCl, 2 µM EcFsaB, 2 µM EcGldA, 0.4 mM NADH, anaerobic glove box; substrate 1,5-AM-6P at various concentrations. The method, then: (§1) The EcPflD glycine radical was characterized using continuous-wave X-band electron paramagnetic resonance (EPR) spectroscopy. A reaction system (200 µL) containing 20 mM Tris/HCl, (pH 7.5), 100 mM KCl, 100 µM titanium(III) citrate, 1 mM SAM, 80 µM reconstituted EcPflC, and 40 µM EcPflD was incubated for 15 minutes at room temperature in a glove box. Glycerol (10%) was added, and a resulting mixture was transferred to an EPR tube with an outer diameter of 4 mm and a length of 8 inches (Wilmad Lab Glass, 734-LPV-7). The tube was sealed with a rubber stopper, removed from the glove box, and frozen in liquid nitrogen prior to EPR analysis. […]
(§2) A reaction mixture containing 20 mM Tris/HCl, (pH 7.5), 100 mM KCl, 10 mM 1,5-AM-6P, 40 nM activated EcPflD, 5 µM EcFsaB, 5 µM EcGldA, and 0.4 mM NADH was incubated in a 1 cm Eppendorf cuvette in a glove box at room temperature. Absorbance at 340 nm was monitored every 5 seconds using a cuvette mode of an ultra-micro UV-Vis spectrophotometer (Hangzhou Miu Instruments Co., Ltd.) inside the glove box. […]
(§3) The reaction system containing 20 mM Tris/HCl, (pH 7.5), 100 mM KCl, 40 nM activated EcPflD and 1,5-AM-6P with various substrate concentrations, 2 µM EcFsaB, 2 µM EcGldA, and 0.4 mM NADH was measured using a cuvette mode of an ultra-micro UV-Vis spectrophotometer (Hangzhou Miu Instruments Co., Ltd.) in a 1 cm Eppendorf cuvette inside a glove box. […]

Substrate in series [3]: O=P(O)(O)OC[C@H]1OC[C@@H](O)[C@@H](O)[C@@H]1O
The series is described as above. As to conditions: other: 40 nM activated EcPflD, 20 mM Tris/HCl pH 7.5, 100 mM KCl, 2 µM EcFsaB, 2 µM EcGldA, 0.4 mM NADH, anaerobic glove box, substrate 1,5-AM-6P at various concentrations. Type of series: biochemical, Escherichia coli strain K12. As for the experimental part: as §1, §2, §3

On to `O=P(O)(O)OC[C@H]1OC[C@H](O)[C@@H](O)[C@@H]1O` [1,5-AG-6P, 1,5-anhydroglucitol-6-phosphate], for which, in series [1], the Michaelis constant (Km) turned out to be 36.5 ± 6.66 mM and the kcat is on record as 43.38 ± 2.96 s^-1/LpYbiW.

As for `O=P(O)(O)OC[C@H]1OC[C@@H](O)[C@@H](O)[C@@H]1O` [1,5-AM-6P, 1,5-anhydromannitol-6-phosphate], the kcat in series [2] was found to be 33.47 ± 0.79 s^-1/EcPflD.

B1: Escherichia coli strain K12 1,5-anhydromannitol-6-phosphate isomerase EcPflD (Uniprot P32674), SEQ ID NO: 98 (Escherichia coli K-12) (protein)
chain: T1 sequence (P32674 1-765)
B1: the Michaelis constant (Km) in series [3] is given as 1.33 ± 0.12 mM.

One may read the Km as the substrate concentration at which the rate is half of its maximum.

These data come from patent publication EP4818317A1, “POLYPEPTIDE FOR BIOSYNTHESIS OF 1,2-PROPANEDIOL AND USE THEREOF” (Tianjin University, priority 2023, dated 2025).
